For assay [1], the target named is T1, ATX (recombinant full-length human ATX), lysoPLD activity (Homo sapiens, UniProt Q13822).
T1 construct: consistent with a mature, glycosylated form of the enzyme; TEV cleavage site (C); 9-His (C); 6-His (C); made in house; host or cells: High Five insect cells (baculovirus, p-DEST-8)
The assay can be described thus: Steady-state ATX lysoPLD activity with fluorescent LPC analogue FS-3. Format: biochemical. The settings on record: for inhibition of ATX lysoPLD activity by GenPlus screen inhibitor analogs / type of inhibition of ATX lysoPLD activity: substrate FS-3; for Ki: substrate FS-3, 37° C. As to the method:
Protein expression and purification: The full length human NPP2 gene (NCBI accession #BC034961) followed by a C-terminal TEV cleavage site and a 9-His and 6-His purification tag was cloned and transferred into a p-DEST-8 baculovirus shuttle vector (Invitrogen), and bacmid DNA was generated by standard methods. […] Three days post infection, the supernatant was adjusted to a final concentration of 50 mM Tris pH 8.0, 5 mM CaCl2, and 1 mM NiSO4 and stirred for 10 min. at room temperature. […] Purified ATX was concentrated to approximately 10 mg mL^−1, and dialyzed into the appropriate assay buffer.
Fluorescence was measured (λex=485 nm, λem=520 nm) on a SpectraMax Gemini XPS at 37° C. under buffer conditions similar to the PDE assays but lacking BSA. […] The spontaneous reaction rates were subtracted from the enzyme catalyzed rates.
The steady-state rates (v) of product formation were obtained by fitting the time courses of absorbance or fluorescence change to linear functions. […] FS-3 hydrolysis product formation was quantitated in arbitrary fluorescence units.
(§1) The Michaelis constants (KM) and the catalytic turnover rate constants (kcat) were obtained by fitting the [substrate]-dependence of v to a rectangular hyperbola in the form of the Briggs-Haldane equation: […]
(§2) in which [S] is [pNP-TMP] or [FS-3]. Inhibitors were treated as reversible inhibitors and analyzed according to the general steady-state linear enzyme inhibitor scheme:
(§3) in which E is ATX, S is pNP-TMP or FS-3 substrate, P are the hydrolysis products, and K1 is the dissociation equilibrium constant for inhibitor binding. The values of α and K1 were obtained by fitting the steady-state rates of product formation (v) to the general inhibition equation: […]
(§4) in which [I] is the inhibitor concentration, kcat is the maximum catalytic turnover rate, and KS is the Michaelis constant of the substrate obtained in the absence of inhibitor.
(§5) The type of inhibition (competitive, noncompetitive, or uncompetitive) depends on the value of α.
(§6) The type of inhibition was assigned if the difference between the r^2 values of the fits to the general inhibition equation (Eq 2) and the specific inhibition (i.e. competitive, noncompetitive or uncompetitive) equations was less than 0.01.

The target of assay [2] is T2, ATX (recombinant full-length human ATX), PDE activity (Homo sapiens, UniProt Q13822).
T2 construct: consistent with a mature, glycosylated form of the enzyme; TEV cleavage site (C); 9-His (C); 6-His (C); made in house; host or cells: High Five insect cells (baculovirus, p-DEST-8)
The assay can be described thus: Steady-state ATX phosphodiesterase (PDE) activity with pNP-TMP, absorbance 405 nm. The class given is biochemical. The settings on record: for Ki: 25° C., read-out: KI (dissociation equilibrium constant for inhibitor binding), ATX PDE activity.
Description: Protein expression and purification: The full length human NPP2 gene (NCBI accession #BC034961) followed by a C-terminal TEV cleavage site and a 9-His and 6-His purification tag was cloned and transferred into a p-DEST-8 baculovirus shuttle vector (Invitrogen), and bacmid DNA was generated by standard methods. The DNA sequence and correct transposition of the genes was verified by PCR, and recombinant full-length human ATX was expressed in High Five insect cells using standard methods. Three days post infection, the supernatant was adjusted to a final concentration of 50 mM Tris pH 8.0, 5 mM CaCl2, and 1 mM NiSO4 and stirred for 10 min. at room temperature. The resulting precipitant was removed by centrifugation (4,420×g for 30 minutes) and filtration ([…]), and the supernatant was concentrated using a Pall concentration system to approximately 250 mL. The cell media was passed over a nickel affinity column (5 mL, Fastflow resin), equilibrated in binding buffer (20 mM Tris pH 8.0, 300 mM NaCl, 20 mM imidazole, and 20% ethylene glycol) at 4° C., washed with 10 column volumes of binding buffer, and then eluted with binding buffer supplemented with 300 mM imidazole. Purified ATX was concentrated to approximately 10 mg mL^−1, and dialyzed into the appropriate assay buffer.
Steady-state enzyme assays: Phosphodiesterase activity of ATX (75-100 nM) was measured by absorbance (λ=405 nm) on a SpectraMax 250 plate reader at 25° C. with the substrate pNP-TMP [36]. Reactions were run in assay buffer containing 10% DMSO (v/v) and 1 mg mL^−1 BSA (hexachlorophene, merbromin, and bithionol) or without BSA (NSC 48300, 2,2′-Methylenebis(4-chlorophenol), eosin Y, and RJC 03297) in a total volume of […]. The uncatalyzed reaction rate was ≦10^−7 s^−1 (data not shown).
The steady-state rates (v) of product formation were obtained by fitting the time courses of absorbance or fluorescence change to linear functions. Absorbance units were converted to p-nitrophenylate concentration using ε405 of 18.5 mM^−1 cm^−1 [39] and a measured path length of 0.494 cm. FS-3 hydrolysis product formation was quantitated in arbitrary fluorescence units.
as §1, §2, §3, §4, §5, §6

The target in another assay is T3, ATX lyso-PLD activity (Homo sapiens, UniProt Q13822).
T3 construct: consistent with a mature, glycosylated form of the enzyme; TEV cleavage site (C); 9-His (C); 6-His (C); made in house; host or cells: High Five insect cells (baculovirus, p-DEST-8)
The assay can be described thus: Time course assay of ATX lyso-PLD activity (FS-3 fluorescent product) with or without 10 μM compound over 30 minutes. The class given is biochemical. The following applies: 10 μM inhibitor, 30 minute interval, compared with NSC 48300. On the procedure: C. Structure of hexachlorophene, merbromin. Bithionol and their analogs -2,2′-Methylenebis(4-chlorophenol), Eosin Y and RJC 03297, respectively. D. Structure of NSC 48300 and its analogs. […] The assay conditions are 300 nM ATX in the presence or absence of 10 μM compound over 30 minutes.
Inhibitor screen: High throughput screens were performed against two libraries: the GenPlus library of 960 compounds (NINDS Custom Collection, MicroSource Discovery systems) and the NCI Diversity Set (1990 compounds, see http://dtp.nci.nih.gov/branches/dscb/repo_open.html). The screens were performed at the Yale Center for Chemical Genomics utilizing a Tecan Aquarius robot in combination with an Aquarius liquid handler and a Freedom EVO Workstation. A V&P Scientific 384 pin tool transferred small molecules (10 mM stock) from library plates into the optically clear, 384 well assay plates, and an Aquarius liquid handling robot transferred protein into the individual wells. The assays were performed in a total volume of 50 μL in assay buffer (50 mM Tris, 140 mM NaCl, 1 mM MgCl2, and 5 mM CaCl2, pH 8.0). Absorbance of p-nitrophenylate, the product of ATX's PDE activity with pNP-TMP (discussed below) was measured at 405 nm over a period of 12 hours. To monitor lysophospholipase-D activity, the fluorescence of FS-3 (625 nM or 4 μM) was monitored (λex=480 nm, λem=535 nm) in assay buffer over a period of 30 minutes in the presence of 300 nM ATX and 10 μM compound. The assay was evaluated using a statistical Z′ analysis, a quantitative measure to determine assay robustness for single point analysis on a high throughput screening platform. The Z′ analysis was performed from 32 maximum control values (c+) and 32 minimum controls (c−) on each plate. Assays consistently performed with Z′ factors of 0.75-0.85, higher than the minimum 0.5 considered robust.
Inhibition of ATX lyso-PLD activity by several NSC48300 analogs was qualitatively compared in a time course assay by measuring the production of fluorescent product in the presence or absence of 10 µM inhibitor over a 30 minute interval.

Assay [3] has as its system human melanoma cell line (A2058). The assay can be described thus: Boyden chamber cell migration assay, melanoma cells. The class given is cell-based. The settings on record: for inhibition of ATX-induced stimulation of melanoma cell motility: A2058, 50 nM ATX, 4 hours. On the procedure:
(§7) All cell media was supplemented with 10% (v/v) fetal calf serum (FCS) (Gibco) and 1% (v/v) L-glutamine (Gibco) and grown at 37° C. in a humidified atmosphere containing 5% CO2.
The assay chambers are divided by a gelatin-coated membrane with […] pores (NeuroProbe). […] The chambers were then incubated at 37° C. for 4 hours, after which the filters were removed, fixed in 100% methanol, stained with a DiffQuick solution, and mounted onto glass slides. Non-migrating cells were removed from the membrane by scraping the top surface. The cells were quantitated by counting the cell number per high powered field in the various wells. Treatments were compared using a chi squared test.

The test system of assay [4] is adenocarcinoma cell motility. The settings on record: reported in ref. [40]; read-out: EC50, inhibition of adenocarcinoma cell motility; cited from earlier work.
A further assay deals with A2058 melanoma cells. Put plainly: Matrigel cell invasion assay, melanoma cells. The class given is cell-based, human. The settings on record: for inhibition of ATX-induced stimulation of melanoma cell invasion: A2058, 50 nM ATX. As to the method:
as §7
Cell invasion assays: Matrigel matrix (1 mg/ml, Becton Dickenson) was added to […] gelatin-coated membranes placed in cell culture inserts (BD Falcon) and allowed to set for 24 hours at room temperature. The inserts were placed into companion 24 well plates (BD Falcon), and chemo-attractants (ATX ±inhibitors) and/or controls were added to the bottom of the wells. Cells (1×10^6) were added to the inserts and incubated for 3 hours at 37° C. Following incubation, the inserts were removed, fixed in 100% methanol, stained with DiffQuick solution, and mounted on glass slides. Non-invading cells were removed by scraping away the matrigel, and migrating cells were quantitated by counting cell number per high-powered field.

Where [5] appears, read: ATX-dependent hydrolysis, fit to Eq. 1.

Where “and” joins values, the source holds several entries; their conditions need not be identical. Identical values can stand only once. Like-named read-outs stand apart in the source and are kept apart here.

Regarding `O=C1OC2(c3ccccc31)c1cc(Br)c(O)c(Br)c1Oc1c2cc(Br)c(O)c1Br` [Eosin Y], in assay [1], the “inhibition of ATX lysoPLD activity by GenPlus screen inhibitor analogs” value is “inhibits ATX lysoPLD activity”, the “type of inhibition of ATX lysoPLD activity” value was “noncompetitive” and the inhibition constant Ki was 116 µM. In assay [2] (substrate pNP-TMP), the “type of inhibition of ATX PDE activity” value was “competitively” and the Ki amounted to 9.6 µM.
For the compound `O=[As](O)(O)c1ccc(-c2ccc([As](=O)(O)O)cc2)cc1` [NSC 13792], the “qualitative effect of structural change on inhibition of ATX lyso-PLD activity” value on ATX lyso-PLD activity is recorded as “eliminates inhibition”.
As for Fluorescent Substrate-3 [FS-3], in assay [1] (setting [5]), the Km stood at 4.5 µM.
Regarding `Cc1cn([C@H]2C[C@H](O)[C@@H](COP(=O)(O)Oc3ccc([N+](=O)[O-])cc3)O2)c(=O)[nH]c1=O` [pNP-TMP, p-Nitrophenyl 5′-thymidine monophosphate], in assay [2] (setting [5]), the Km was found to be 1400 µM; the “kcat for pNP-TMP hydrolysis” value is 1.6 s^−1 and 1.6 (±0.1) s^−1.
As for `Cc1ccc2c(c1)C(=O)C1(O)CCN(c3ccccc3)C1=N2` (stereo not shown) [Blebbistatin], the EC50 was 27 µM in assay [3] (A2058, 75 nM LPA, read-out: EC50, inhibition of cell motility with addition of LPA); 54 µM in assay [3] (A2058, in the presence of 50 nM ATX, read-out: EC50, inhibition of ATX-induced cell motility); around 50 µM in assay [4].
Consider `O=C([O-])c1ccccc1-c1c2cc(Br)c(=O)cc-2oc2[c]([Hg+])c([O-])c(Br)cc12.[Na+].[Na+].[OH-]` [Merbromin], for which, in assay [2] (substrate pNP-TMP), the “type of inhibition of ATX PDE activity” value is listed as “noncompetitive inhibition” and the inhibitory constant (Ki) was determined as 43 µM. Further, the “inhibition of ATX-induced stimulation of melanoma cell invasion” value in the assay with A2058 melanoma cells is “inhibited in a dose-dependent manner”. Further, the “inhibition of ATX-induced stimulation of melanoma cell motility” value in assay [3] is on record as “inhibited in a dose-dependent manner”.
On to `COC(=O)c1ccc(Cc2ccc(C(=O)OC)cc2)cc1` [NSC 86629], for which, on ATX lyso-PLD activity, the “qualitative effect of structural change on inhibition of ATX lyso-PLD activity” value was “eliminates inhibition”.
For the compound `Oc1ccc(Cl)cc1Cc1cc(Cl)ccc1O` [2,2′-Methylenebis(4-chlorophenol)], the “inhibition of ATX lysoPLD activity by GenPlus screen inhibitor analogs” value in assay [1] is recorded as “only Eosin Y (an analogue of merbromin) inhibits ATX lysoPLD activity”. Also, in assay [2] (substrate pNP-TMP), the “type of inhibition of ATX PDE activity” value is recorded as “noncompetitively” and the Ki is 104 µM.
On to lysophosphatidic acid [LPA], for which, in the assay with A2058 melanoma cells (A2058, ATX (50 nM) or LPA (75 nM)), the “increase in number of invading cells per hpf” value is reported as 3.5 fold.
With `Oc1c(Cl)cc(Cl)c(Cl)c1Cc1c(O)c(Cl)cc(Cl)c1Cl` [Hexachlorophene], in assay [1], the “type of inhibition of ATX lysoPLD activity” value is on record as “competitive inhibitor” and the Ki was 68 µM. In assay [2] (substrate pNP-TMP), the “type of inhibition of ATX PDE activity” value is reported as “competitive inhibition”, the “α value from general steady-state inhibition equation (Eq. 2)” value is above 45 and the Ki turned out to be 15 µM. Besides, in the assay on A2058 melanoma cells, the “inhibition of ATX-induced stimulation of melanoma cell invasion” value is reported as “inhibited in a dose-dependent manner”. The “inhibition of ATX-induced stimulation of melanoma cell motility” value in assay [3] was “inhibited in a dose-dependent manner”.

Broadly, the Ki is a measure of affinity in units of concentration, obtained from inhibition or displacement. For orientation: Km means the substrate concentration at which the rate is half of its maximum. Usually EC50 stands for the concentration giving half of the maximal effect.

The values above are taken from patent US20110110886A1, “SMALL MOLECULE INHIBITORS OF AUTOTAXIN AND METHODS OF USE” (Yale University, priority 2008, published 2011).
